In the NIST ThermoML archive (doi:10.1021/je050209y):
± gives the expanded uncertainty stated by the source.

Experiments:
[1] = xn = mol fraction of the nth substance listed; settings: 298.15 K, 101.33 kPa, Liquid
[2] = 298.15 K; 101.33 kPa; Liquid

CNC=O [N-methylformamide] + CN(C)C=O
[1]
Settings	mass density [kg/m3]	viscosity [mPa·s]
x2 = 0.0497	995.4 ± 0.7	1.618 ± 0.025
x2 = 0.0997	991.9 ± 0.7	1.524 ± 0.024
x2 = 0.2002	985.5 ± 0.8	1.373 ± 0.022
x2 = 0.2999	979.4 ± 0.8	1.274 ± 0.02
x2 = 0.4001	973.6 ± 0.9	1.171 ± 0.019
x2 = 0.4999	968.1 ± 0.9	1.085 ± 0.017
x2 = 0.5999	963 ± 0.9	1.006 ± 0.016
x2 = 0.699	958 ± 1	0.947 ± 0.015
x2 = 0.8001	953.2 ± 1	0.897 ± 0.015
x2 = 0.9001	948.6 ± 1.1	0.855 ± 0.014
x2 = 0.95	946.4 ± 1.1	0.84 ± 0.014

CN(C)C=O [dimethylformamide]
[2]
Settings	mass density [kg/m3]	viscosity [mPa·s]
–	944.2 ± 1.1	0.799 ± 0.013

CNC=O [N-methylformamide] + O
[1]
Settings	mass density [kg/m3]	viscosity [mPa·s]
x1 = 0.0504	1003.2 ± 0.7	1.174 ± 0.019
x1 = 0.1001	1008.9 ± 0.7	1.422 ± 0.022
x1 = 0.2	1014.6 ± 0.8	1.793 ± 0.028
x1 = 0.2998	1016.3 ± 0.8	2.001 ± 0.031
x1 = 0.4002	1015.1 ± 0.8	2.067 ± 0.032
x1 = 0.4996	1012.2 ± 0.7	2.04 ± 0.031
x1 = 0.5996	1009.4 ± 0.7	1.961 ± 0.03
x1 = 0.6994	1006.1 ± 0.7	1.878 ± 0.029
x1 = 0.7999	1003.7 ± 0.7	1.794 ± 0.028
x1 = 0.8983	1000.9 ± 0.7	1.734 ± 0.027
x1 = 0.9498	999.7 ± 0.7	1.707 ± 0.027

CNC=O [N-methylformamide]
[2]
Settings	mass density [kg/m3]	viscosity [mPa·s]
–	998.8 ± 0.7	1.681 ± 0.026

CN(C)C=O [dimethylformamide] + O
[1]
Settings	mass density [kg/m3]	viscosity [mPa·s]
x1 = 0.05	996 ± 0.7	1.31 ± 0.021
x1 = 0.1001	996.8 ± 0.7	1.728 ± 0.027
x1 = 0.2	995.1 ± 0.7	2.346 ± 0.036
x1 = 0.299	991.6 ± 0.7	2.491 ± 0.038
x1 = 0.3998	984.4 ± 0.8	2.273 ± 0.035
x1 = 0.4997	975.9 ± 0.8	1.878 ± 0.029
x1 = 0.5993	968.4 ± 0.9	1.532 ± 0.024
x1 = 0.6995	960.7 ± 1	1.243 ± 0.02
x1 = 0.8	954.9 ± 1	1.045 ± 0.017
x1 = 0.8991	949.1 ± 1.1	0.901 ± 0.015
x1 = 0.9488	946.9 ± 1.1	0.843 ± 0.014
